PubChem BioAssay AID1259407 (Chemical Carcinogenesis Research Information System (CCRIS), 2018)
Calls of active or inactive are those of the source. The rule behind the calls is not given here.

Test system: CCRIS mutagenicity, Ames/micronucleus/aberration tests
Experiment: CCRIS mutagenicity studies
[1] = Test System: AMES SALMONELLA TYPHIMURIUM, Strain/Indicator: TA98, Metabolic Activation: HAMSTER, LIVER, S-9, AROCLOR 1254 (10%), Method: PREINCUBATION
[2] = Test System: AMES SALMONELLA TYPHIMURIUM, Strain/Indicator: TA98, Metabolic Activation: NONE, Method: PREINCUBATION
[3] = Test System: AMES SALMONELLA TYPHIMURIUM, Strain/Indicator: TA98, Metabolic Activation: RAT, LIVER, S-9, AROCLOR 1254 (10%), Method: PREINCUBATION
[4] = Test System: AMES SALMONELLA TYPHIMURIUM, Strain/Indicator: TA100, Metabolic Activation: HAMSTER, LIVER, S-9, AROCLOR 1254 (10%), Method: PREINCUBATION
[5] = Test System: AMES SALMONELLA TYPHIMURIUM, Strain/Indicator: TA100, Metabolic Activation: NONE, Method: PREINCUBATION
[6] = Test System: AMES SALMONELLA TYPHIMURIUM, Strain/Indicator: TA100, Metabolic Activation: RAT, LIVER, S-9, AROCLOR 1254 (10%), Method: PREINCUBATION
[7] = Test System: AMES SALMONELLA TYPHIMURIUM, Strain/Indicator: TA1535, Metabolic Activation: HAMSTER, LIVER, S-9, AROCLOR 1254 (10%), Method: PREINCUBATION
[8] = Test System: AMES SALMONELLA TYPHIMURIUM, Strain/Indicator: TA1535, Metabolic Activation: NONE, Method: PREINCUBATION
[9] = Test System: AMES SALMONELLA TYPHIMURIUM, Strain/Indicator: TA1535, Metabolic Activation: RAT, LIVER, S-9, AROCLOR 1254 (10%), Method: PREINCUBATION
[10] = Test System: AMES SALMONELLA TYPHIMURIUM, Strain/Indicator: TA100, Metabolic Activation: NONE, Method: STANDARD PLATE

## c1ccc(Nc2ccccc2)cc1
End Point: In vitro chromosomal aberrations, Test System: Chinese hamster lung (CHL/IU) cells, Metabolic Activation: Rat, Liver, S9, Phenobarbital and 5,6-benzoflavone
  mutagenic call: active; positive (structural changes). toxicity at 0.14 mg/ml.
Test System: AMES SALMONELLA TYPHIMURIUM, Strain/Indicator: TA97, Metabolic Activation: HAMSTER, LIVER, S-9, AROCLOR 1254 (10%), Method: PREINCUBATION
  mutagenic call: inactive; negative
Test System: AMES SALMONELLA TYPHIMURIUM, Strain/Indicator: TA97, Metabolic Activation: HAMSTER, LIVER, S-9, AROCLOR 1254 (30%), Method: PREINCUBATION
  mutagenic call: inactive; negative
Test System: AMES SALMONELLA TYPHIMURIUM, Strain/Indicator: TA97, Metabolic Activation: NONE, Method: PREINCUBATION
  mutagenic call: inactive; negative
Test System: AMES SALMONELLA TYPHIMURIUM, Strain/Indicator: TA97, Metabolic Activation: RAT, LIVER, S-9, AROCLOR 1254 (10%), Method: PREINCUBATION
  mutagenic call: inactive; negative
Test System: AMES SALMONELLA TYPHIMURIUM, Strain/Indicator: TA97, Metabolic Activation: RAT, LIVER, S-9, AROCLOR 1254 (30%), Method: PREINCUBATION
  mutagenic call: inactive; negative
[1]
  mutagenic call: inactive; negative
Test System: AMES SALMONELLA TYPHIMURIUM, Strain/Indicator: TA98, Metabolic Activation: HAMSTER, LIVER, S-9, AROCLOR 1254 (30%), Method: PREINCUBATION
  mutagenic call: inactive; negative
[2]
  mutagenic call: inactive; negative
[3]
  mutagenic call: inactive; negative
Test System: AMES SALMONELLA TYPHIMURIUM, Strain/Indicator: TA98, Metabolic Activation: RAT, LIVER, S-9, AROCLOR 1254 (30%), Method: PREINCUBATION
  mutagenic call: inactive; negative
[4]
  mutagenic call: inactive; negative
Test System: AMES SALMONELLA TYPHIMURIUM, Strain/Indicator: TA100, Metabolic Activation: HAMSTER, LIVER, S-9, AROCLOR 1254 (30%), Method: PREINCUBATION
  mutagenic call: inactive; negative
[5]
  mutagenic call: inactive; negative
[6]
  mutagenic call: inactive; negative
Test System: AMES SALMONELLA TYPHIMURIUM, Strain/Indicator: TA100, Metabolic Activation: RAT, LIVER, S-9, AROCLOR 1254 (30%), Method: PREINCUBATION
  mutagenic call: inactive; negative
[7]
  mutagenic call: inactive; negative
Test System: AMES SALMONELLA TYPHIMURIUM, Strain/Indicator: TA1535, Metabolic Activation: HAMSTER, LIVER, S-9, AROCLOR 1254 (30%), Method: PREINCUBATION
  mutagenic call: inactive; negative
[8]
  mutagenic call: inactive; negative
[9]
  mutagenic call: inactive; negative
Test System: AMES SALMONELLA TYPHIMURIUM, Strain/Indicator: TA1535, Metabolic Activation: RAT, LIVER, S-9, AROCLOR 1254 (30%), Method: PREINCUBATION
  mutagenic call: inactive; negative

## O=c1c(O[C@@H]2O[C@H](CO)[C@H](O)[C@H](O)[C@H]2O)c(-c2ccc(O)c(O)c2)oc2cc(O)cc(O)c12
Test System: Ames Salmonella typhimurium, Strain/Indicator: TA98, Metabolic Activation: None, Method: Standard plate
  mutagenic call: inactive; negative
Test System: Ames Salmonella typhimurium, Strain/Indicator: TA98, Metabolic Activation: Rat, Liver, S-9, Aroclor 1254, Method: Standard plate
  mutagenic call: inactive; negative

## CCC[CH2][Sn]([CH2]CCC)([O]C(C)=O)[O]C(C)=O
[1]
  mutagenic call: inactive; negative
[2]
  mutagenic call: inactive; negative
[3]
  mutagenic call: inactive; negative
[4]
  mutagenic call: inactive; negative
[5]
  mutagenic call: inactive; negative
[6]
  mutagenic call: inactive; negative
[7]
  mutagenic call: inactive; negative
[8]
  mutagenic call: inactive; negative
[9]
  mutagenic call: inactive; negative
Test System: AMES SALMONELLA TYPHIMURIUM, Strain/Indicator: TA1537, Metabolic Activation: HAMSTER, LIVER, S-9, AROCLOR 1254 (10%), Method: PREINCUBATION
  mutagenic call: inactive; negative
Test System: AMES SALMONELLA TYPHIMURIUM, Strain/Indicator: TA1537, Metabolic Activation: NONE, Method: PREINCUBATION
  mutagenic call: inactive; negative
Test System: AMES SALMONELLA TYPHIMURIUM, Strain/Indicator: TA1537, Metabolic Activation: RAT, LIVER, S-9, AROCLOR 1254 (10%), Method: PREINCUBATION
  mutagenic call: inactive; negative

## CCN(CC)c1ccc(C(=C2C=CC(=[N+](CC)CC)C=C2)c2ccc(N(CC)CC)cc2)cc1
Test System: AMES SALMONELLA TYPHIMURIUM, Strain/Indicator: TA98, Metabolic Activation: HAMSTER, LIVER, S-9, AROCLOR 1254 (10%), Method: STANDARD PLATE
  mutagenic call: inactive; negative
Test System: AMES SALMONELLA TYPHIMURIUM, Strain/Indicator: TA98, Metabolic Activation: NONE, Method: STANDARD PLATE
  mutagenic call: inactive; negative
Test System: AMES SALMONELLA TYPHIMURIUM, Strain/Indicator: TA98, Metabolic Activation: RAT, LIVER, S-9, AROCLOR 1254 (10%), Method: STANDARD PLATE
  mutagenic call: inactive; negative
Test System: AMES SALMONELLA TYPHIMURIUM, Strain/Indicator: TA100, Metabolic Activation: HAMSTER, LIVER, S-9, AROCLOR 1254 (10%), Method: STANDARD PLATE
  mutagenic call: inactive; negative
[10]
  mutagenic call: inactive; negative
Test System: AMES SALMONELLA TYPHIMURIUM, Strain/Indicator: TA100, Metabolic Activation: RAT, LIVER, S-9, AROCLOR 1254 (10%), Method: STANDARD PLATE
  mutagenic call: inactive; negative
Test System: AMES SALMONELLA TYPHIMURIUM, Strain/Indicator: TA1535, Metabolic Activation: NONE, Method: STANDARD PLATE
  mutagenic call: inactive; negative
Test System: AMES SALMONELLA TYPHIMURIUM, Strain/Indicator: TA1535, Metabolic Activation: RAT, LIVER, S-9, AROCLOR 1254 (10%), Method: STANDARD PLATE
  mutagenic call: inactive; negative
Test System: AMES SALMONELLA TYPHIMURIUM, Strain/Indicator: TA1537, Metabolic Activation: HAMSTER, LIVER, S-9, AROCLOR 1254 (10%), Method: STANDARD PLATE
  mutagenic call: inactive; negative
Test System: AMES SALMONELLA TYPHIMURIUM, Strain/Indicator: TA1537, Metabolic Activation: NONE, Method: STANDARD PLATE
  mutagenic call: inactive; negative
Test System: AMES SALMONELLA TYPHIMURIUM, Strain/Indicator: TA1537, Metabolic Activation: RAT, LIVER, S-9, AROCLOR 1254 (10%), Method: STANDARD PLATE
  mutagenic call: inactive; negative
Test System: AMES SALMONELLA TYPHIMURIUM, Strain/Indicator: TA1538, Metabolic Activation: HAMSTER, LIVER, S-9, AROCLOR 1254 (10%), Method: STANDARD PLATE
  mutagenic call: inactive; negative
Test System: AMES SALMONELLA TYPHIMURIUM, Strain/Indicator: TA1538, Metabolic Activation: NONE, Method: STANDARD PLATE
  mutagenic call: inactive; negative
Test System: AMES SALMONELLA TYPHIMURIUM, Strain/Indicator: TA1538, Metabolic Activation: RAT, LIVER, S-9, AROCLOR 1254 (10%), Method: STANDARD PLATE
  mutagenic call: inactive; negative
Test System: Mouse lymphoma, Strain/Indicator: L5178Y (tk+/tk-), Metabolic Activation: None, Method: Suspension/plate
  mutagenic call: inactive; negative
Test System: Mouse lymphoma, Strain/Indicator: L5178Y (tk+/tk-), Metabolic Activation: Rat, Liver, S-9, Aroclor 1254, Method: Suspension/plate
  mutagenic call: inactive; inconclusive (previous results negative)

## c1ccc2cc3c(cc2c1)cc1ccc2cccc4ccc3c1c24
Test System: HUMAN H1A1V2 CELLS, Strain/Indicator: TK LOCUS, Metabolic Activation: NONE, Method: SUSPENSION/PLATE
  mutagenic call: active; positive

## Clc1ncnc2nc[nH]c12
[10]
  mutagenic call: active; positive
